This test concerns primary cultures of rat cortical neurons. The test can be described thus: Cell protective activity against glutamate induced-neurotoxicity (MTT assay). In kind it is cell-based, Sprague-Dawley rats. How it is done:
The extracts of Dioscorea opposita were suspended in DMSO (Sigma Co., Ltd) and diluted to the extent that the final concentration reaches to <0.1%. Each suspension was filtered with 0.22 μm membrane filter (Millipore Co., Ltd.) to sterilize. After the concentrations of each fractions were adjusted to 100 μg/ml and 10 μg/ml, The test samples with various final concentration of various fractions were named as follows: 100 μg/ml of hexane layer (H100), 10 μg/ml of hexane layer (H10), 100 μg/ml of water layer (W100), 10 μg/ml of water layer (W10), 100 μg/ml of ethyl-acetate layer (E100), 10 μg/ml of ethylacetate layer (E10), 100 μg/ml of chloroform layer (C100), 10 μg/ml of chloroform layer (C10), 100 μg/ml of butanol layer (B100), 10 μg/ml of butanol layer (B10) respectively. The cultured cell was pretreated with each test sample 1 hour before the glutamate treatment and the protective activity of D. opposita against the death of cerebral cortex cells was assessed.
The tested fractions were dissolved in DMSO and diluted to the extent that the final concentration reaches to <0.1%. The matured cerebral cortex cells for 15 days were pretreated with the test fractions for 1 hour and then exposed to 100 μM glutamate. After further incubation for 24 hour, the neuronal survival was quantified using by MTT assay, which yields blue formazan products in living cells.
(In general: Formazan colour is commonly taken as a measure of viable cells.)

Results on 1 molecule are retold here after US7824718B2, “Extract of Dioscorea opposita thunb showing neuronal cell-protecting activity for treating memory loss” (Tong Yang Moolsan Co., Ltd., priority 2005, dated 2010).

`C[C@]12N[C@H](Cc3ccccc31)c1ccccc12` [MK801]: the “Protection activity (%)” value (MK801 positive control in Table 1, concentration not given) was found to be 79%. The molecule further returned a Relative protection (positive control at 10 μM, P<0.0001) of 80.6±1.6%.
